Results published in patent publication US20120214846A1, “HEXAHYDROCYCLOPENTYL[F]INDAZOLE PYRIDYL ETHANOLS AND DERIVATIVES THEREOF AS SELECTIVE GLUCOCORTICOID RECEPTOR MODULATORS” (MERCK SHARP & DOHME CORP, priority 2009, published 2012).

Assays:
GR = target: T1, GR (Homo sapiens, UniProt P04150); assay: GR Ligand Binding Assay (GR BIND), HeLa cell lysate, 3H-DEX; parameters: endogenous in cells; host or cells: HeLa (ATCC) cell lysate supernatant; settings: HeLa cell lysate, 3H-DEX; read-out: GR BIND Ki
T1 sequence (P04150 1-777): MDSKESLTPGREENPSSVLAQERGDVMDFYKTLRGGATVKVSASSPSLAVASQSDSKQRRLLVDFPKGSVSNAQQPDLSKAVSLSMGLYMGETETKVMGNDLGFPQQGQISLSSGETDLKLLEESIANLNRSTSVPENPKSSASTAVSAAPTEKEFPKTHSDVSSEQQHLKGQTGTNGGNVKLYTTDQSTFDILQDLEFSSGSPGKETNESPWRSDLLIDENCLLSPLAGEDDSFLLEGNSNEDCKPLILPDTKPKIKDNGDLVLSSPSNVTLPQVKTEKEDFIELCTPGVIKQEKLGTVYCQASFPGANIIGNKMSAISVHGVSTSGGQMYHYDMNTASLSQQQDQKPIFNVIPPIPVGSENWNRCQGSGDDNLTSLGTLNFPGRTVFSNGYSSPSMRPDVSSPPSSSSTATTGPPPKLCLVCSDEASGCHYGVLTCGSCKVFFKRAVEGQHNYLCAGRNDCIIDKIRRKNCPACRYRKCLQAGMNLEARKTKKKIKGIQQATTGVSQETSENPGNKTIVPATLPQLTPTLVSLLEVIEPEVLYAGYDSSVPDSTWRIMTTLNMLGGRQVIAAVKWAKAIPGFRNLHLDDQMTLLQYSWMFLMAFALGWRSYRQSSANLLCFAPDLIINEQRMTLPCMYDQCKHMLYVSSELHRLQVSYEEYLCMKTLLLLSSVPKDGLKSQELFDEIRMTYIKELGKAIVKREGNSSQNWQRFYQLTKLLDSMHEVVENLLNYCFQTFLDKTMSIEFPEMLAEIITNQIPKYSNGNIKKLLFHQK
Procedure: Binding Buffer: TEGM (10 mM Tris-HCl, 1 mM EDTA, 10% glycerol, 1 mM beta-mecaptoethanol, 10 mM Sodium Molybdate, pH 7.2)
Phenol red-free Trypsin-EDTA is diluted in the same PBS 1:10. The cell layers are rinsed with 1× Trypsin, extra Trypsin is poured out, and the cell layers are incubated at 37° C. for ˜2 min. The flask is tapped and checked for signs of cell detachment. Once the cells begin to slide off the flask, the complete media is added. The cells are counted at this point, then diluted to the appropriate concentration and split into flasks or dishes for further culturing (Usually 1:3 to 1:6 dilution).
The cell pellet is washed twice with TEGM (10 mM Tris-HCl, 1 mM EDTA, 10% glycerol, 1 mM beta-mercaptoethanol, 10 mM Sodium Molybdate, pH 7.2). […] The cell suspension is snap frozen in liquid nitrogen or ethanol/dry ice bath and transferred to −80° C. freezer on dry ice. Before setting up the binding assay, the frozen samples are left on ice-water to just thaw (˜1 hr). Then the samples are centrifuged at 12,500 g to 20,000 g for 30 min at 4° C. The supernatant is used to set-up assay right away. If using 50 μL of supernatant, the test compound can be prepared in 50 μL of the TEGM buffer.
1×TEGM buffer is prepared, and the isotope-containing assay mixture is prepared in the following order: EtOH (2% final concentration in reaction), 3H-DEX (Amersham Biosciences) and 1×TEGM. [e.g. For 100 samples, 200 μL (100×2) of EtOH+4.25 μL of 1:10 3H-Dex stock+2300 μL (100×23) 1×TEGM]. The compound is serially diluted, e.g., if starting final conc. is 1 μM, and the compound is in 25 μL of solution, for duplicate samples, 75 μL of 4×1 μM solution is made and 3 μL of 100 μM is added to 72 μL of buffer, and 1:5 serial dilution.
25 μL of 3H-DEX (6 nM) trace and 25 μl, compound solution are first mixed together, followed by addition of 50 μL receptor solution. The reaction is gently mixed, spun briefly at about 200 rpm and incubated at 4° C. overnight. 100 μL of 50% HAP slurry is prepared and added to the incubated reaction which is then vortexed and incubated on ice for 5 to 10 minutes. The reaction mixture is vortexed twice more to resuspend HAP while incubating reaction. The samples in 96-well format are then washed in wash buffer using The FilterMate™ Universal Harvester plate washer (Packard). The washing process transfers HAP pellet containing ligand-bound expressed receptor to Unifilter-96 GF/B filter plate (Packard). The HAP pellet on the filter plate is incubated with 50 μL of MICROSCINT (Packard) scintillint for 30 minutes before being counted on the TopCount microscintillation counter (Packard). IC50s are calculated using DEX as a reference.

[1] = system: female Sprague-Dawley rats, oxazolone (OX) contact dermatitis; assay: In Vivo Inflammation Assay (oxazolone contact dermatitis model); parameters: key to Inflammation Assay Glucose Effect / GL *: +: the glucose level increased compared to vehicle; −: the glucose level decreased compared to vehicle; settings: rat; for Inflammation Assay Glucose Effect: glucose level compared to vehicle; for Inflammation Assay Anti-inflammatory Effect: relative to control compound
Procedure: In Vivo Inflammation Assay
Intact adult (6 month old) female Sprague-Dawley rats are used in the oxazolone (OX) contactdermatitis model. Rats were sensitized on the ventral abdomen with OX on Day 0. On Days 7 and 9, a randomly-selected ear was challenged (same ear each time) with OX; the other was treated with vehicle. Daily treatment begun on Day 7 and continued for 7d with test compounds at different doses and 1.3 mpk 6-methlyprednisolone or 0.1 mpk DEX as positive controls. The thickness of both ears are measured on Days 11 and 14. Necropsy occurred on Day 14. The rat is first weighed, then anesthetized in a CO2 chamber until near death. Approximately 5 ml whole blood is obtained by cardiac puncture. The rat is then examined for certain signs of death and completeness. Tissues are dissected in a highly stylized fashion. Then the following endpoints were evaluated: a) inhibiting ear inflammation induced by oxazalone, b) raising serum insulin, c) reducing serum ACTH, d) reducing spleen weight, e) reducing skin thickness, f) reducing body weight, g) increasing expression of bone-related genes with potential relationship to negative glucocorticoid effects on bone; e) changes in molecular markers that correlate with skin inflammation, skin thinning, muscle atrophy and glucose metabolism in liver. All blood samples were collected between 1330-1530 hours, ˜4-5 hrs after the last compound treatment.
Primary data for this assay are left and right ear thickness. Inter-ear thickness difference (etd) is used for the estimating the level of inflammation and effectiveness of the compounds is determined by their ability to reduce the increase the thickness of the inflamed ear. Back of the rat skin thickness, spleen weight, serum insulin as well as the effects of gcs on the expression of molecular markers in skin inflammation, skin atrophy, muscle atrophy and glucose metabolism in liver are measured. Data are analyzed by anova plus fisher plsd post-hoc test to identify intergroup differences.

Structure (SMILES)	Ki (GR) [nM]	Inflammation Assay Glucose Effect [1]	Inflammation Assay Anti-inflammatory Effect [1]
C[C@]12Cc3cnn(-c4ccc(F)cc4)c3C=C1CC[C@@]2(O)CC(O)c1cc(C#N)ccn1 (stereo partly drawn) [Example 9, 2-{2-[(4αS,5R)-1-(4-fluorophenyl)-5-hydroxy-4α-methyl-1,4,4α,5,6,7-hexahydrocyclopenta[f]indazol-5-yl]-1-hydroxyethyl}pyridine-4-carbonitrile]	2.1	+	+ (the anti-inflammatory activity was equal to or greater than 40% of the effect generated by the control compound)
Cc1ccnc(C(O)C[C@]2(O)CCC3=Cc4c(cnn4-c4ccc(F)cc4)C[C@@]32C)c1 (stereo partly drawn) [Example 11, (4αS,5R)-1-(4-fluorophenyl)-5-[2-hydroxy-2-(4-methylpyridin-2-yl)ethyl]-4α-methyl-1,4,4α,5,6,7-hexahydrocyclopenta[f]indazol-5-ol]	3.9	+	+ (the anti-inflammatory activity was equal to or greater than 40% of the effect generated by the control compound)
